Assay results from patent US11780826B2 (Amgen Inc., priority 2017, dated 2023).

Test system: Bovine cardiac myofibrils
Assay: In vitro model of dose-dependent myofibril ATPase modulation (AC1.4, pyruvate kinase/lactate dehydrogenase-coupled ATPase assay at pCa25)
Format: biochemical
Conditions: concentration at which ATPase activity was 1.4-fold higher than the bottom of the dose curve, mean of a minimum of two independent tests
Procedure, shortened: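 Compound dilutions were premixed with myofibrils, coupling enzymes, EGTA and CaCl2, then the reaction was started with an equal volume carrying ATP (final 1 mM), NADH and PEP. ATP turnover was followed at 340 nm, and dose responses were fit to a four-parameter equation.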

AC1.4 [µM] | Structure (SMILES)
5.246 | CS(=O)(=O)c1cccc(C(=O)N2[C@@H](C(=O)NC(c3ccc(C(F)(F)F)cc3F)C3CNC(=O)C3)C[C@H]3C[C@H]32)c1 (stereo partly drawn) [Example 685, (1R,3R,5R)-N-((2-fluoro-4-(trifluoromethyl)phenyl)(5-oxopyrrolidin-3-yl)methyl)-2-(3-(methylsulfonyl)benzoyl)-2-azabicyclo[3.1.0]hexane-3-carboxamide]
5.284 | O=C(N[C@@H](c1ccc(C(F)(F)F)c(F)c1)C1CC1)[C@H]1C[C@H]2C[C@H]2N1C(=O)c1ccnc(S(=O)(=O)C2CC2)c1 [Example 686, (1R,3R,5R)-N-((R)-cyclopropyl(3-fluoro-4-(trifluoromethyl)phenyl)methyl)-2-((2-(cyclopropylsulfonyl)-4-pyridinyl)carbonyl)-2-azabicyclo[3.1.0]hexane-3-carboxamide]
5.299 | NS(=O)(=O)c1ccc(Cl)c(C(=O)N2CCC[C@@H]2C(=O)N[C@@H](c2ccc(C(F)(F)F)cc2F)C2CC2)c1 [Example 687, 1-(2-chloro-5-sulfamoylbenzoyl)-N-((R)-cyclopropyl(2-fluoro-4-(trifluoromethyl)phenyl)methyl)-D-prolinamide]
5.317 | Cc1noc(C2CN(S(=O)(=O)N3CCC[C@H](C(=O)N4CCC[C@@H]4C(=O)NCc4ccc(C(F)(F)F)cc4)C3)C2)n1 [Example 688, 1-(((3S)-1-((3-(3-methyl-1,2,4-oxadiazol-5-yl)-1-azetidinyl)sulfonyl)-3-piperidinyl)carbonyl)-N-(4-(trifluoromethyl)benzyl)-D-prolinamide]
5.334 | N#CC1CN(S(=O)(=O)c2cccc(C(=O)N3CCC[C@@H]3C(=O)NCCn3ccc(C(F)(F)F)n3)c2)C1 [Example 689, 1-((3-((3-cyano-1-azetidinyl)sulfonyl)phenyl)carbonyl)-N-(2-(3-(trifluoromethyl)-1H-pyrazol-1-yl)ethyl)-D-prolinamide]
5.354 | CS(=O)(=O)c1cc(C(=O)N2CCC[C@@H]2C(=O)N[C@@H](c2ccc(C(F)(F)F)cc2F)C2CC2)ccc1F [Example 690, N-((R)-cyclopropyl(2-fluoro-4-(trifluoromethyl)phenyl)methyl)-1-(4-fluoro-3-(methylsulfonyl)benzoyl)-D-prolinamide]
5.3575 | CC1(c2cccc(C(=O)N3CCC[C@@H]3C(=O)N[C@@H](c3ccc(C(F)(F)F)cc3F)C3CC3)c2)COC1 [Example 691, N-((R)-cyclopropyl(2-fluoro-4-(trifluoromethyl)phenyl)methyl)-1-(3-(3-methyl-3-oxetanyl)benzoyl)-D-prolinamide]
5.379 | COCC(=O)NC1CN(S(=O)(=O)N2CCC[C@H](C(=O)N3CCC[C@@H]3C(=O)NCc3ccc(C(F)(F)F)cc3)C2)C1 [Example 692, 1-(((3S)-1-((3-((methoxyacetyl)amino)-1-azetidinyl)sulfonyl)-3-piperidinyl)carbonyl)-N-(4-(trifluoromethyl)benzyl)-D-prolinamide]
5.425 | CN1C[C@H](C(=O)N[C@@H](c2ccc(C(F)(F)F)cc2F)C2CC2)N(C(=O)c2cccc(S(C)(=O)=O)c2)C1=O [Example 693, (4R)-N-((R)-cyclopropyl(2-fluoro-4-(trifluoromethyl)phenyl)methyl)-1-methyl-3-(3-(methylsulfonyl)benzoyl)-2-oxo-4-imidazolidinecarboxamide]
5.48 | N#CC1CN(S(=O)(=O)N2CCC[C@H](C(=O)N3CCC[C@H]3C(=O)NCc3cc(F)cc(F)c3)C2)C1 [Example 694, 1-(((3S)-1-((3-cyano-1-azetidinyl)sulfonyl)-3-piperidinyl)carbonyl)-N-(3,5-difluorobenzyl)-L-prolinamide]
5.5132 | Cc1cncc(C(=O)N2[C@@H](C(=O)N[C@@H](c3cc(F)c(Cl)cc3F)C3COC3)C[C@H]3C[C@H]32)c1 [Example 695, (1R,3R,5R)-N-((R)-(4-chloro-2,5-difluorophenyl)(3-oxetanyl)methyl)-2-((5-methyl-3-pyridinyl)carbonyl)-2-azabicyclo[3.1.0]hexane-3-carboxamide]
5.525 | CN1CC(C(=O)N[C@@H](c2ccc(C(F)(F)F)cc2F)C2CC2)N(C(=O)c2cccc(S(C)(=O)=O)c2)C1=O (stereo partly drawn) [Example 696, N-((R)-cyclopropyl(2-fluoro-4-(trifluoromethyl)phenyl)methyl)-1-methyl-3-(3-(methylsulfonyl)benzoyl)-2-oxoimidazolidine-4-carboxamide]
5.5445 | O=C(NCc1ccc(C(F)(F)F)cc1)[C@H]1CCCN1C(=O)[C@H]1CCCN(S(=O)(=O)N2CCC2c2ccc(Cl)cc2)C1 (stereo partly drawn) [Example 697, (2R)-1-((3S)-1-((2-(4-chlorophenyl)azetidin-1-yl)sulfonyl)piperidine-3-carbonyl)-N-(4-(trifluoromethyl)benzyl)pyrrolidine-2-carboxamide]
5.5675 | C[C@@H](NC(=O)[C@H]1CCCN1C(=O)[C@H]1CCCN(S(=O)(=O)N2CC(C#N)C2)C1)c1ccc(F)cc1OC(F)F [Example 698, 1-(((3S)-1-((3-cyano-1-azetidinyl)sulfonyl)-3-piperidinyl)carbonyl)-N-((1R)-1-(2-(difluoromethoxy)-4-fluorophenyl)ethyl)-D-prolinamide]
5.5865 | O=C(NCc1ccc(C(F)(F)F)cc1)[C@H]1CCCN1C(=O)[C@H]1CCCN(S(=O)(=O)N2CC(Cc3ccc(Cl)cc3)C2)C1 [Example 699, 1-(((3S)-1-((3-(4-chlorobenzyl)-1-azetidinyl)sulfonyl)-3-piperidinyl)carbonyl)-N-(4-(trifluoromethyl)benzyl)-D-prolinamide]
5.588 | COc1ccc(F)cc1CNC(=O)[C@H]1CCCN1C(=O)[C@H]1CCCN(S(=O)(=O)N2CC(C#N)C2)C1 [Example 700, (((3S)-1-((3-cyano-1-azetidinyl)sulfonyl)-3-piperidinyl)carbonyl)-N-(5-fluoro-2-methoxybenzyl)-D-prolinamide]
5.643 | N#Cc1cccc(C(=O)N2CCC[C@@H]2C(=O)N[C@@H](c2ccc(C(F)(F)F)cc2F)C2CC2)c1 [Example 701, 1-(3-cyanobenzoyl)-N-((R)-cyclopropyl(2-fluoro-4-(trifluoromethyl)phenyl)methyl)-D-prolinamide]
5.6535 | Cc1ccnc(C(=O)N2[C@@H](C(=O)N[C@@H](c3cc(F)c(Cl)cc3F)C3CC3)C[C@H]3C[C@H]32)c1 [Example 702, (1R,3R,5R)-N-((R)-(4-chloro-2,5-difluorophenyl)(cyclopropyl)methyl)-2-((4-methyl-2-pyridinyl)carbonyl)-2-azabicyclo[3.1.0]hexane-3-carboxamide]
5.723 | O=C(NCc1ccc(C(F)(F)F)cc1)[C@H]1CCCN1C(=O)[C@H]1CCCN(S(=O)(=O)N2CC(F)(F)C2)C1 [Example 703, 1-(((3S)-1-((3,3-difluoro-1-azetidinyl)sulfonyl)-3-piperidinyl)carbonyl)-N-(4-(trifluoromethyl)benzyl)-D-prolinamide]
5.725 | CS(=O)(=O)N1CC(c2cccc(C(=O)N3CCC[C@@H]3C(=O)N[C@@H](c3ccc(C(F)(F)F)cc3F)C3CC3)c2)C1 [Example 704]
5.7373 | N#CC1CN(S(=O)(=O)N2CCC[C@H](C(=O)N3CCC[C@@H]3C(=O)NC3Cc4ccccc43)C2)C1 (stereo partly drawn) [Example 705, (2R)-N-(bicyclo[4.2.0]octa-1 (6),2,4-trien-7-yl)-1-((S)-1-((3-cyanoazetidin-1-yl)sulfonyl)piperidine-3-carbonyl)pyrrolidine-2-carboxamide]
5.7465 | CS(=O)(=O)c1cccc(C(=O)N2C[C@@H](F)C[C@@H]2C(=O)N[C@@H](c2ccc(C(F)(F)F)cc2F)C2(F)COC2)c1 [Example 706, (4S)-4-fluoro-N-((S)-(3-fluoro-3-oxetanyl)(2-fluoro-4-(trifluoromethyl)phenyl)methyl)-1-(3-(methylsulfonyl)benzoyl)-D-prolinamide]
5.821 | O=C(NCc1ccc(C(F)(F)F)cc1)[C@H]1CCCN1C(=O)[C@H]1CCCN(S(=O)(=O)N2CC(c3ccccn3)C2)C1 [Example 707, 1-(((3S)-1-((3-(2-pyridinyl)-1-azetidinyl)sulfonyl)-3-piperidinyl)carbonyl)-N-(4-(trifluoromethyl)benzyl)-D-prolinamide]
5.8345 | CCOc1ccc(CNC(=O)[C@H]2CCCN2C(=O)[C@H]2CCCN(S(=O)(=O)N3CC(C#N)C3)C2)cc1F [Example 708, 1-(((3S)-1-((3-cyano-1-azetidinyl)sulfonyl)-3-piperidinyl)carbonyl)-N-(4-ethoxy-3-fluorobenzyl)-D-prolinamide]
5.887 | O=C(NC1CN(S(=O)(=O)N2CCC[C@H](C(=O)N3CCC[C@@H]3C(=O)NCc3ccc(C(F)(F)F)cc3)C2)C1)C1CC1 [Example 710, 1-(((3S)-1-((3-((cyclopropylcarbonyl)amino)-1-azetidinyl)sulfonyl)-3-piperidinyl)carbonyl)-N-(4-(trifluoromethyl)benzyl)-D-prolinamide]
5.9215 | CN(C)C(=O)C1CN(S(=O)(=O)N2CCC[C@H](C(=O)N3CCC[C@@H]3C(=O)NCc3ccc(C(F)(F)F)cc3)C2)C1 [Example 712, (R)-1-((S)-1-((3-(dimethylcarbamoyl)azetidin-1-yl)sulfonyl)piperidine-3-carbonyl)-N-(4-(trifluoromethyl)benzyl)pyrrolidine-2-carboxamide]
6.039 | O=C(N[C@@H](c1cc(F)c(Cl)cc1F)C1CC1)[C@H]1C[C@H]2C[C@H]2N1C(=O)c1cc(C2CC2)ccn1 [Example 713, (1R,3R,5R)-N-((R)-(4-chloro-2,5-difluorophenyl)(cyclopropyl)methyl)-2-((4-cyclopropyl-2-pyridinyl)carbonyl)-2-azabicyclo[3.1.0]hexane-3-carboxamide]
